Reference: ChEMBL document CHEMBL1124209, “Phosphonoformate and phosphonoacetate derivatives of 5-substituted 2'-deoxyuridines: synthesis and antiviral activity” (1988)
In brackets after ≈: the same amount, converted by molar mass.

Assays:
Format in all cases: functional
Oryctolagus cuniculus [1] = species on record: Oryctolagus cuniculus; assay: Minimum cytotoxic concentration causing toxic effects on uninfected cells in rabbit
Human alphaherpesvirus 1 [2] = assay: Mean survival time in HSV-1 infected mice, after peroral administration of 10 mg/kg of compound; conditions: route oral
Human alphaherpesvirus 1 [3] = assay: Minimum inhibitory concentration causing 25% inhibition of cytopathic effect induced by Herpes simplex virus-1 (K979) in HEp-2 cells
Human alphaherpesvirus 1 [4] = assay: Cumulative mortality in percent of HSV-1 infected mice, after intraperitoneal administration of 1 mg/kg of compound
Human alphaherpesvirus 1 [5] = assay: Cumulative mortality in percent of HSV-1 infected mice, after intraperitoneal administration of 0.5 mg/kg of compound
Mus musculus [6] = assay: Mean duration of lesions in HSV-1 infected mice, after administration of 0.1 % of compound intracutaneously
Human alphaherpesvirus 1 [7] = assay: Mean survival time in HSV-1 infected mice, after peroral administration of 5 mg/kg of compound; conditions: route oral
Human alphaherpesvirus 1 [8] = assay: Cumulative mortality in percent of HSV-1 infected mice, after peroral administration of 1 mg/kg of compound; conditions: route oral
Human alphaherpesvirus 1 [9] = assay: Minimum inhibitory concentration causing 25% inhibition of cytopathic effect induced by Herpes simplex virus-1 (Brand) in vero cells
Human alphaherpesvirus 1 [10] = assay: Cumulative mortality in percent of HSV-1 infected mice, after intraperitoneal administration of 5 mg/kg of compound
Mus musculus [11] = assay: Mean duration of lesions in HSV-1 infected mice, after administration of 0.3 % of compound intracutaneously
Human alphaherpesvirus 1 [12] = assay: Mean survival time in HSV-1 infected mice, after intraperitoneal administration of 5 mg/kg of compound
Human alphaherpesvirus 1 [13] = assay: Minimum inhibitory concentration causing 25% inhibition of cytopathic effect induced by Herpes simplex virus(HSV) -1 (thymidine kinase deficient) in HEp-2 cells
Human alphaherpesvirus 1 [14] = assay: Minimum inhibitory concentration causing 25% inhibition of cytopathic effect induced by Herpes simplex virus(HSV) -1 (thymidine kinase deficient) in vero cells
Human alphaherpesvirus 1 [15] = assay: Cumulative mortality in percent of HSV-1 infected mice, after peroral administration of 5 mg/kg of compound; conditions: route oral
Human alphaherpesvirus 1 [16] = assay: Mean survival time in HSV-1 infected mice, after intraperitoneal administration of 0.5 mg/kg of compound
Human alphaherpesvirus 1 [17] = assay: Cumulative mortality in percent of HSV-1 infected mice, after peroral administration of 10 mg/kg of compound; conditions: route oral
Human alphaherpesvirus 1 [18] = assay: Minimum inhibitory concentration causing 25% inhibition of cytopathic effect induced by herpes simplex virus (HSV)-1 (K979) in vero cells.
Human alphaherpesvirus 1 [19] = assay: Minimum inhibitory concentration causing 25% inhibition cytopathic effect induced by Herpes simplex virus-1 (Brand) in HEp-2 cells
Human alphaherpesvirus 1 [20] = assay: Mean survival time in HSV-1 infected mice, after peroral administration of 1 mg/kg of compound; conditions: route oral
Human alphaherpesvirus 2 [21] = assay: Minimum inhibitory concentration causing 25% inhibition of cytopathic effect induced by Herpes simplex virus(HSV) -2 (thymidine kinase deficient) in vero cells
Human alphaherpesvirus 1 [22] = assay: Mean survival time in HSV-1 infected mice, after intraperitoneal administration of 1 mg/kg of compound
Mus musculus [23] = assay: Cumulative lesions in HSV-1 infected mice, after administration of 0.1 % of compound intracutaneously
Mus musculus [24] = assay: Cumulative lesions in HSV-1 infected mice, after administration of 0.3 % of compound intracutaneously
Human alphaherpesvirus 2 [25] = assay: Minimum inhibitory concentration causing 25% inhibition of cytopathic effect induced by Herpes simplex virus(HSV) -2 (thymidine kinase deficient) in HEp-2 cells
Human alphaherpesvirus 2 [26] = assay: Minimum inhibitory concentration causing 25% inhibition cytopathic effect induced by Herpes simplex virus(HSV) -2 (thymidine kinase deficient) in vero cells
Human alphaherpesvirus 1 [27] = assay: Minimum inhibitory concentration causing 25% inhibition cytopathic effect induced by Herpes simplex virus(HSV) -1 (thymidine kinase deficient) in HEp-2 cells
Mus musculus [28] = assay: Cumulative mortality in percent of HSV-1 infected mice, after intraperitoneal administration of 25 mg/kg
Mus musculus [29] = assay: Cumulative mortality in percent of HSV-1 infected mice, after peroral administration of 100 mg/kg of compound; conditions: route oral
Mus musculus [30] = assay: Mean survival time in HSV-1 infected mice, after intraperitoneal administration of 25 mg/kg
Mus musculus [31] = assay: Mean survival time in HSV-1 infected mice, after peroral administration of 100 mg/kg; conditions: route oral
Human alphaherpesvirus 1 [32] = assay: Minimum inhibitory concentration causing 50% inhibition of cytopathic effect induced by HSV-1 in PRK cells
Human alphaherpesvirus 2 [33] = assay: Minimum inhibitory concentration causing 50% inhibition of cytopathic effect induced by HSV-2 in PRK cells
Human alphaherpesvirus 1 [34] = assay: Minimum inhibitory concentration causing 50% inhibition of cytopathic effect induced by HSV-1(thymidine kinase deficient) in PRK cells
Oryctolagus cuniculus [35] = species on record: Oryctolagus cuniculus; assay: Minimum cytotoxic concentration of compound causing toxic effects on uninfected cells
Human alphaherpesvirus 2 [36] = assay: Minimum inhibitory concentration causing 25% inhibition cytopathic effect induced by Herpes simplex virus(HSV) -2 (thymidine kinase deficient) in HEp -2 cells
Human alphaherpesvirus 1 [37] = assay: Minimum inhibitory concentration causing 50% inhibition of cytopathic effect induced by HSV-1 (thymidine kinase deficient) in PRK cells
Human alphaherpesvirus 1 [38] = assay: Minimum inhibitory concentration of compound causing 50% inhibition of cytopathic effect induced by HSV-1 (thymidine kinase deficient) in PRK cells
Human alphaherpesvirus 2 [39] = assay: Minimum inhibitory concentration of compound causing 50% inhibition of cytopathic effect induced by HSV-2 in PRK cells
Human alphaherpesvirus 1 [40] = assay: Minimum inhibitory concentration of compound causing 50% inhibition of cytopathic effect induced by HSV-1 in PRK cells

Row | SMILES | MTC (Oryctolagus cuniculus [1]) [µM] | MIC (Human alphaherpesvirus 1 [3]) [µM] | MIC (Human alphaherpesvirus 1 [9]) [µM] | MIC (Human alphaherpesvirus 1 [13]) [µM] | MIC (Human alphaherpesvirus 1 [14]) [µM] | MIC (Human alphaherpesvirus 1 [18]) [µM] | MIC (Human alphaherpesvirus 1 [19]) [µM] | MIC (Human alphaherpesvirus 2 [21]) [µM] | MIC (Human alphaherpesvirus 2 [25]) [µM] | further results
1 | CCOC(=O)CP(=O)(OC)OC[C@H]1O[C@@H](n2cc(CCCl)c(=O)[nH]c2=O)C[C@@H]1O (some centres not stated) | 726 | > 220 | 6.6 (≈ 3 µg/mL) | > 220 | 66 (≈ 30 µg/mL) | > 220 | 66 (≈ 30 µg/mL) | > 220 | > 220 | MST (Human alphaherpesvirus 1 [2]): 11.5 days; CMP (Human alphaherpesvirus 1 [4]): 92; CMP (Human alphaherpesvirus 1 [5]): 58; MDL (Mus musculus [6]): 10.6 days; MST (Human alphaherpesvirus 1 [7]): 12.8 days; CMP (Human alphaherpesvirus 1 [8]): 100; CMP (Human alphaherpesvirus 1 [10]): 83; MDL (Mus musculus [11]): 6 days; MST (Human alphaherpesvirus 1 [12]): 11.8 days; CMP (Human alphaherpesvirus 1 [15]): 75; MST (Human alphaherpesvirus 1 [16]): 13.9 days; CMP (Human alphaherpesvirus 1 [17]): 67; MST (Human alphaherpesvirus 1 [20]): 8.9 days; MST (Human alphaherpesvirus 1 [22]): 11.9 days; lesions (Mus musculus [23]): 83; lesions (Mus musculus [24]): 58
2 | CCOC(=O)P(=O)(OC)OC[C@H]1O[C@@H](n2cc(I)c(=O)[nH]c2=O)C[C@@H]1O (some centres not stated) | 198 | 5.9 (≈ 2.97 µg/mL) | 0.6 (≈ 0.303 µg/mL) | – | 19.8 (≈ 9.98 µg/mL) | 5.9 (≈ 2.97 µg/mL) | 2 (≈ 1.01 µg/mL) | – | 5.9 (≈ 2.97 µg/mL) | MIC (Human alphaherpesvirus 2 [26]): 5.9 µM (≈ 2.97 µg/mL); MIC (Human alphaherpesvirus 1 [27]): 2 µM (≈ 1.01 µg/mL)
3 | CCOC(=O)P(=O)(OC)OC[C@H]1O[C@@H](n2cc(CCCl)c(=O)[nH]c2=O)C[C@@H]1O (some centres not stated) | 749 | 22.7 (≈ 10 µg/mL) | 0.7 (≈ 0.309 µg/mL) | > 227 | 68.1 (≈ 30 µg/mL) | 227 (≈ 100 µg/mL) | 0.7 (≈ 0.309 µg/mL) | > 227 | > 227 | MST (Human alphaherpesvirus 1 [2]): 18.9 days; CMP (Human alphaherpesvirus 1 [4]): 42; CMP (Human alphaherpesvirus 1 [5]): 33; MDL (Mus musculus [6]): 3.3 days; MST (Human alphaherpesvirus 1 [7]): 16 days; CMP (Human alphaherpesvirus 1 [8]): 63; CMP (Human alphaherpesvirus 1 [10]): 0; MDL (Mus musculus [11]): 1.4 days; MST (Human alphaherpesvirus 1 [12]): 20 days; CMP (Human alphaherpesvirus 1 [15]): 38; MST (Human alphaherpesvirus 1 [16]): 16.7 days; CMP (Human alphaherpesvirus 1 [17]): 13; MST (Human alphaherpesvirus 1 [20]): 13.9 days; MST (Human alphaherpesvirus 1 [22]): 15.6 days; lesions (Mus musculus [23]): 33; lesions (Mus musculus [24]): 17
4 | Nc1nc2c(ncn2COCCO)c(=O)[nH]1 [ACYCLOVIR] | 440 | 13.2 (≈ 2.97 µg/mL) | 0.01 (≈ 0.00225 µg/mL) | 440 (≈ 99.1 µg/mL) | 44 (≈ 9.91 µg/mL) | 1.3 (≈ 0.293 µg/mL) | 4.4 (≈ 0.991 µg/mL) | 132 (≈ 29.7 µg/mL) | 440 (≈ 99.1 µg/mL) | CMP (Mus musculus [28]): 15; CMP (Mus musculus [29]): 10; MST (Mus musculus [30]): 18.6 days; MST (Mus musculus [31]): 18.9 days
5 | O=c1[nH]c(=O)n([C@H]2C[C@H](O)[C@@H](CO)O2)cc1/C=C/Br [BRIVUDINE] | >1302 | – | – | – | – | – | – | – | – | CMP (Mus musculus [29]): 30; MIC (Human alphaherpesvirus 1 [32]): 0.07 µM (≈ 0.0233 µg/mL); MIC (Human alphaherpesvirus 2 [33]): 32.6 µM (≈ 10.9 µg/mL); MIC (Human alphaherpesvirus 1 [34]): 1300 µM (≈ 434 µg/mL)
6 | O=C(O)P(=O)(O)O [FOSCARNET] | 2.619 | 238 (≈ 30 µg/mL) | 238 (≈ 30 µg/mL) | 794 (≈ 100 µg/mL) | 79.4 (≈ 10 µg/mL) | 238 (≈ 30 µg/mL) | 794 (≈ 100 µg/mL) | 79.4 (≈ 10 µg/mL) | – | MIC (Human alphaherpesvirus 1 [32]): 238 µM (≈ 30 µg/mL); MTC (Oryctolagus cuniculus [35]): >3174 µM; MIC (Human alphaherpesvirus 2 [33]): 159 µM (≈ 20 µg/mL); MIC (Human alphaherpesvirus 2 [36]): 238 µM (≈ 30 µg/mL); MIC (Human alphaherpesvirus 1 [37]): 317 µM (≈ 39.9 µg/mL)
7 | O=C(O)CP(=O)(O)O [FOSFONET] | 2.356 | 71.4 (≈ 10 µg/mL) | 71.4 (≈ 10 µg/mL) | 214 (≈ 30 µg/mL) | 71.4 (≈ 10 µg/mL) | 71.4 (≈ 10 µg/mL) | 214 (≈ 30 µg/mL) | 71.4 (≈ 10 µg/mL) | 214 (≈ 30 µg/mL) | MIC (Human alphaherpesvirus 1 [38]): 286 µM (≈ 40 µg/mL); MIC (Human alphaherpesvirus 2 [39]): 143 µM (≈ 20 µg/mL); MTC (Oryctolagus cuniculus [35]): >2856 µM; MIC (Human alphaherpesvirus 1 [40]): 286 µM (≈ 40 µg/mL)
8 | O=c1[nH]c(=O)n([C@H]2C[C@H](O)[C@@H](CO)O2)cc1I [IDOXURIDINE] | 281 | 0.8 (≈ 0.283 µg/mL) | 0.3 (≈ 0.106 µg/mL) | – | 8.4 (≈ 2.97 µg/mL) | 2.8 (≈ 0.991 µg/mL) | 0.8 (≈ 0.283 µg/mL) | – | 8.4 (≈ 2.97 µg/mL) | MIC (Human alphaherpesvirus 2 [26]): > 281 µM; MIC (Human alphaherpesvirus 1 [27]): 0.8 µM (≈ 0.283 µg/mL)
